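These data come from cells grown in 96-well plates and exposed to compound for 48 hours at five concentrations. GI50 = concentration required for 50% inhibition of growth. The concentration for full growth arrest is given as TGI.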 Bounds are passed on as bounds.

Test systems include CCRF-CEM leukemia; HS 578T breast; PC-3 prostate; U251 CNS; HT29 colon; DU-145 prostate; T-47D breast; A549 NSCLC; EKVX NSCLC; HOP-62 NSCLC.
Common to all, as to assay: inhibition of tumour cell growth, NCI panel, 48 h

Regarding `COc1cc2cc3c4cc(OC)c(OC)cc4cc[n+]3c(C)c2cc1OC` (tested in a mixture with another compound), the TGI in the experiment on CCRF-CEM leukemia was more than 100 µM; with HS 578T breast, more than 100 µM; in the experiment with PC-3 prostate it was more than 100 µM; with U251 CNS, more than 100 µM; in the experiment on HT29 colon, more than 69.1 µM; in the experiment with DU-145 prostate it was more than 100 µM. Moreover, the TGI in the experiment on T-47D breast, with A549 NSCLC, in the experiment with EKVX NSCLC and in the experiment on HOP-62 NSCLC was more than 100 µM each time.

Turning to `Cc1ccc2c(c1)CC1(Cc3ccccc3C1=O)C2=O` (stereo not given), the TGI with CCRF-CEM leukemia, in the experiment on HS 578T breast, with PC-3 prostate, in the experiment on U251 CNS, with HT29 colon and with DU-145 prostate was more than 100 µM throughout. In addition, the TGI with T-47D breast, in the experiment with A549 NSCLC, in the experiment with EKVX NSCLC and in the experiment on HOP-62 NSCLC was more than 100 µM each time.

For `CCOC(=O)c1cn2c(n1)sc1cc(Cl)ccc12`, the TGI with CCRF-CEM leukemia is more than 100 µM; with HS 578T breast, more than 100 µM; with PC-3 prostate it was more than 100 µM; in the experiment on U251 CNS, 60.7 µM; in the experiment on HT29 colon, more than 100 µM; with DU-145 prostate it was more than 100 µM. The TGI in the experiment on T-47D breast is more than 100 µM; in the experiment on A549 NSCLC it was more than 100 µM; in the experiment on EKVX NSCLC, more than 100 µM; with HOP-62 NSCLC, 61.6 µM.

For the molecule `C/C(=N/NC(N)=S)c1ccc[nH]1`, the TGI in the experiment with CCRF-CEM leukemia, in the experiment on HS 578T breast, with PC-3 prostate, in the experiment with U251 CNS, in the experiment on HT29 colon and in the experiment with DU-145 prostate was more than 100 µM each time. The TGI with T-47D breast, in the experiment with A549 NSCLC, in the experiment on EKVX NSCLC and in the experiment on HOP-62 NSCLC was more than 100 µM in each case.

Take `CN(C)CCCN=c1c2ccccc2n(O)c2ccccc12`: the TGI in the experiment on CCRF-CEM leukemia is more than 100 µM; in the experiment with HS 578T breast, more than 100 µM; in the experiment with PC-3 prostate it was more than 100 µM; in the experiment with U251 CNS, more than 100 µM; in the experiment with HT29 colon it was 28.8 µM; in the experiment on DU-145 prostate, more than 100 µM. The TGI in the experiment on T-47D breast, with A549 NSCLC, in the experiment with EKVX NSCLC and in the experiment with HOP-62 NSCLC was more than 100 µM throughout.

With `O=C(Nc1nnc(-c2ccc(Cl)cc2)o1)C(SC(=S)N1CCOCC1)c1ccccc1` (stereo not given), the TGI was more than 100 µM with CCRF-CEM leukemia; more than 100 µM in the experiment on HS 578T breast; 55.1 µM with PC-3 prostate; 77.2 µM with U251 CNS; 78.3 µM in the experiment with HT29 colon; more than 100 µM with DU-145 prostate. In addition, the TGI in the experiment on T-47D breast is more than 100 µM; in the experiment with A549 NSCLC, 81.3 µM; in the experiment on EKVX NSCLC it was 59.7 µM; in the experiment with HOP-62 NSCLC it was more than 100 µM.

On to `Cc1ccc([N+](=O)[O-])c2c(NCCC[N+](C)(C)[O-])c3ccccc3nc12`, for which the TGI was more than 30.8 µM in the experiment with CCRF-CEM leukemia; 21.7 µM in the experiment on HS 578T breast; 4.41 µM with PC-3 prostate; 7.32 µM in the experiment with U251 CNS; 5.26 µM in the experiment on HT29 colon; 8.19 µM in the experiment on DU-145 prostate. Besides, the TGI in the experiment with T-47D breast is 7 µM; with A549 NSCLC it was 6.29 µM; with EKVX NSCLC, 3.88 µM; in the experiment on HOP-62 NSCLC, more than 41.1 µM.

For the molecule `CO/C=C(/C(=O)OC)c1ccccc1COc1cccc(C(F)(F)F)c1`, the TGI in the experiment on CCRF-CEM leukemia was 27.3 µM; with HS 578T breast, more than 100 µM; in the experiment on PC-3 prostate, more than 100 µM; in the experiment with U251 CNS, more than 100 µM; in the experiment on HT29 colon it was more than 100 µM; in the experiment on DU-145 prostate it was more than 100 µM. The TGI is 91.4 µM in the experiment on T-47D breast, more than 100 µM in the experiment on A549 NSCLC, more than 100 µM in the experiment on EKVX NSCLC and more than 100 µM in the experiment on HOP-62 NSCLC.

Take `COc1cc(-c2nc3ccccn3c2/N=C/c2cc(Br)cc(Br)c2O)ccc1O`: the TGI worked out at 45.6 µM with CCRF-CEM leukemia; 83.8 µM in the experiment on HS 578T breast; 65.8 µM in the experiment on PC-3 prostate; 31.9 µM in the experiment on U251 CNS; 57.1 µM in the experiment on HT29 colon; 84.3 µM in the experiment with DU-145 prostate. The TGI in the experiment on T-47D breast was 74.3 µM; with A549 NSCLC it was more than 100 µM; in the experiment with EKVX NSCLC, 54.5 µM; in the experiment on HOP-62 NSCLC it was 52.5 µM.

`N#Cc1[nH]c(=O)n(-c2ccccc2)c1N`: the TGI with CCRF-CEM leukemia, in the experiment on HS 578T breast, in the experiment on PC-3 prostate, in the experiment on U251 CNS, in the experiment on HT29 colon and with DU-145 prostate was more than 10 µM each time. Moreover, the TGI with T-47D breast, in the experiment with A549 NSCLC, in the experiment on EKVX NSCLC and in the experiment with HOP-62 NSCLC was more than 10 µM throughout.

Consider `CC(=O)O[C@H]1C(=O)[C@@]2(C)[C@H]([C@H](OC(=O)c3ccoc3)[C@]3(O)C[C@H](OC(=O)[C@H](O)[C@@H](NC(=O)c4ccccc4)c4ccccc4)C(C)=C1C3(C)C)[C@]1(OC(C)=O)CO[C@@H]1C[C@@H]2O`, for which the TGI is more than 2.88 µM with CCRF-CEM leukemia; 0.612 µM in the experiment on HS 578T breast; more than 12.5 µM in the experiment on PC-3 prostate; more than 12.5 µM in the experiment on U251 CNS; more than 12.5 µM in the experiment with HT29 colon; more than 12.5 µM in the experiment with DU-145 prostate. Moreover, the TGI in the experiment on T-47D breast, in the experiment with A549 NSCLC, with EKVX NSCLC and with HOP-62 NSCLC was more than 12.5 µM throughout.

On to `CC(CC[C@@]1(C)C(=O)CCC2O[C@]21C)[C@H]1C[C@@H](c2ccoc2)OC1=O` (stereo not given in full), for which the TGI in the experiment with CCRF-CEM leukemia is 61.3 µM; in the experiment on HS 578T breast it was more than 100 µM; in the experiment with PC-3 prostate, more than 100 µM; with U251 CNS, more than 100 µM; with HT29 colon, more than 100 µM; with DU-145 prostate, more than 100 µM. Also, the TGI in the experiment with T-47D breast, in the experiment with A549 NSCLC, in the experiment with EKVX NSCLC and in the experiment on HOP-62 NSCLC was more than 100 µM each time.

Take `Cc1ccc(S(=O)(=O)N/N=C2/CCCOC2)cc1`: the TGI in the experiment with CCRF-CEM leukemia, in the experiment with HS 578T breast, in the experiment on PC-3 prostate, with U251 CNS, in the experiment with HT29 colon and with DU-145 prostate was more than 100 µM throughout. Also, the TGI with T-47D breast, in the experiment on A549 NSCLC, with EKVX NSCLC and in the experiment with HOP-62 NSCLC was more than 100 µM each time.

Consider `O=C(NCP(=O)(c1ccccc1)c1ccccc1)OCc1ccccc1`, for which the TGI in the experiment on CCRF-CEM leukemia, in the experiment with HS 578T breast, in the experiment with PC-3 prostate, with U251 CNS, in the experiment with HT29 colon and with DU-145 prostate was more than 100 µM in each case. Further, the TGI in the experiment with T-47D breast, in the experiment on A549 NSCLC, with EKVX NSCLC and in the experiment with HOP-62 NSCLC was more than 100 µM in each case.

Consider `O=C(c1ccco1)N(C(=S)OCCOc1ccccc1)c1ccccc1`, for which the TGI is 46.5 µM in the experiment on CCRF-CEM leukemia; more than 100 µM in the experiment with HS 578T breast; 57.8 µM in the experiment on PC-3 prostate; 30.2 µM with U251 CNS; 42.1 µM in the experiment with HT29 colon; 51.6 µM in the experiment on DU-145 prostate. Besides, the TGI with T-47D breast amounted to 76.2 µM; in the experiment on A549 NSCLC, 90.2 µM; in the experiment on EKVX NSCLC, 52.4 µM; in the experiment on HOP-62 NSCLC, 32.1 µM.

Take `CCN1CCN(c2nc3ccccc3c3c2CCOc2ccccc2-3)CC1`: the TGI was more than 83.6 µM with CCRF-CEM leukemia; more than 59.2 µM with HS 578T breast; more than 90.9 µM in the experiment with PC-3 prostate; more than 79.2 µM in the experiment with U251 CNS; more than 51.5 µM in the experiment on HT29 colon; more than 31.6 µM in the experiment on DU-145 prostate. Also, the TGI is more than 69.8 µM with T-47D breast, more than 69.3 µM in the experiment with A549 NSCLC, more than 100 µM with EKVX NSCLC and more than 100 µM in the experiment on HOP-62 NSCLC.

On to `COc1ccccc1CNCCCN1C(=O)c2ccc3c4c(ccc(c24)C1=O)C(=O)N(CCCNCCNCCCN)C3=O`, for which the GI50 was 3.17 µM with CCRF-CEM leukemia; 5.51 µM with HS 578T breast; 5.91 µM with PC-3 prostate; 1.17 µM in the experiment with U251 CNS; 2.07 µM in the experiment with HT29 colon; 3.65 µM with DU-145 prostate. Moreover, the GI50 in the experiment with T-47D breast is 1.51 µM; in the experiment with A549 NSCLC, 3.01 µM; in the experiment with EKVX NSCLC, 4.17 µM; in the experiment on HOP-62 NSCLC, 2.46 µM. Further, the TGI in the experiment on CCRF-CEM leukemia was 56.8 µM; in the experiment on HS 578T breast it was 42.9 µM; in the experiment with PC-3 prostate it was 80.2 µM; in the experiment on U251 CNS, 10.1 µM; in the experiment on HT29 colon, 11 µM; with DU-145 prostate, 12.5 µM. The TGI with T-47D breast stood at 4.99 µM; in the experiment with A549 NSCLC it was 13.1 µM; in the experiment with EKVX NSCLC, 16.3 µM; with HOP-62 NSCLC, 14.2 µM.

For `CCC(=O)Oc1ccc2c(c1)c(=O)c1c(NCCCN(C)C)ccc3nnn2c31`, the TGI in the experiment with CCRF-CEM leukemia came out at 2.01 µM; in the experiment on HS 578T breast it was 21.6 µM; in the experiment with PC-3 prostate, 16.1 µM; in the experiment with U251 CNS it was 17 µM; in the experiment with HT29 colon it was 11.6 µM; in the experiment on DU-145 prostate, 16.7 µM. The TGI in the experiment with T-47D breast was found to be 31 µM; in the experiment on A549 NSCLC, 13.4 µM; in the experiment on EKVX NSCLC it was 16.6 µM; in the experiment on HOP-62 NSCLC it was 16.6 µM.

The values above are taken from PubChem BioAssay (NCI).
